From PubChem BioAssay (NCI)
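Briefly, cells in 96-well plates were exposed to five compound concentrations for 48 h, and endpoints were estimated by linear interpolation. Here, GI50 denotes the concentration required for 50% inhibition of growth. TGI: total growth inhibition.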

Legend:
Experiment in all cases: DTP human tumour cell line panel, 48 h
TK-10 renal = system: TK-10 renal
SNB-75 CNS = system: SNB-75 CNS
SF-295 CNS = system: SF-295 CNS
K-562 leukemia = system: K-562 leukemia
MDA-MB-231 breast = system: MDA-MB-231 breast
UO-31 renal = system: UO-31 renal
HCC-2998 colon = system: HCC-2998 colon
HOP-62 NSCLC = system: HOP-62 NSCLC
CAKI-1 renal = system: CAKI-1 renal
HOP-92 NSCLC = system: HOP-92 NSCLC
SR leukemia = system: SR leukemia
SK-OV-3 ovarian = system: SK-OV-3 ovarian
SN12C renal = system: SN12C renal
NCI-H460 lung = system: NCI-H460 lung
CCRF-CEM leukemia = system: CCRF-CEM leukemia
HCT-15 colon = system: HCT-15 colon
SK-MEL-28 melanoma = system: SK-MEL-28 melanoma
ACHN renal = system: ACHN renal
UACC-257 melanoma = system: UACC-257 melanoma
HL-60(TB) leukemia = system: HL-60(TB) leukemia
OVCAR-8 ovarian = system: OVCAR-8 ovarian
T-47D breast = system: T-47D breast
A549 NSCLC = system: A549 NSCLC
786-0 renal = system: 786-0 renal
KM12 colon = system: KM12 colon
IGROV1 ovarian = system: IGROV1 ovarian
M14 melanoma = system: M14 melanoma
MALME-3M melanoma = system: MALME-3M melanoma
NCI-H522 lung = system: NCI-H522 lung
NCI-H226 lung = system: NCI-H226 lung
MCF7 breast = system: MCF7 breast
OVCAR-4 ovarian = system: OVCAR-4 ovarian
RPMI-8226 leukemia = system: RPMI-8226 leukemia
PC-3 prostate = system: PC-3 prostate
COLO 205 colon = system: COLO 205 colon
HCT-116 colon = system: HCT-116 colon
DU-145 prostate = system: DU-145 prostate
SNB-19 CNS = system: SNB-19 CNS
NCI/ADR-RES ovarian = system: NCI/ADR-RES ovarian
UACC-62 melanoma = system: UACC-62 melanoma
BT-549 breast = system: BT-549 breast
A498 renal = system: A498 renal
SW-620 colon = system: SW-620 colon
SK-MEL-2 melanoma = system: SK-MEL-2 melanoma
OVCAR-5 ovarian = system: OVCAR-5 ovarian
HS 578T breast = system: HS 578T breast
SF-268 CNS = system: SF-268 CNS
MDA-MB-435 = system: MDA-MB-435
MOLT-4 leukemia = system: MOLT-4 leukemia
NCI-H23 lung = system: NCI-H23 lung
HT29 colon = system: HT29 colon
SK-MEL-5 melanoma = system: SK-MEL-5 melanoma
U251 CNS = system: U251 CNS
LOX IMVI melanoma = system: LOX IMVI melanoma
SF-539 CNS = system: SF-539 CNS
OVCAR-3 ovarian = system: OVCAR-3 ovarian

Work on `Cc1cc(Nc2cccc(F)c2)nc(NCc2ccccc2)n1` yielded a GI50 (TK-10 renal) of 8.29 µM, a TGI (TK-10 renal) of 21.4 µM and a GI50 (SNB-75 CNS) of 0.799 µM. It also gave a TGI (SNB-75 CNS) of 13 µM, a GI50 (SF-295 CNS) of 6.57 µM and a TGI (SF-295 CNS) of 27.1 µM. For the same compound, the GI50 (K-562 leukemia) was 2.89 µM, the TGI (K-562 leukemia) was 12.9 µM and the GI50 (MDA-MB-231 breast) was 3.28 µM. The TGI (MDA-MB-231 breast) was 14.1 µM, the GI50 (UO-31 renal) was 3.26 µM and the TGI (UO-31 renal) was 19.3 µM. For the same compound, the GI50 (HCC-2998 colon) was 2 µM, the TGI (HCC-2998 colon) was 4.19 µM and the GI50 (HOP-62 NSCLC) was 10.2 µM. The TGI (HOP-62 NSCLC) was 23.4 µM, the GI50 (CAKI-1 renal) was 3.94 µM and the TGI (CAKI-1 renal) was 17.8 µM. It also gave a GI50 (HOP-92 NSCLC) of 1.81 µM, a TGI (HOP-92 NSCLC) of 11 µM and a GI50 (SR leukemia) of 3.28 µM. It also gave a TGI (SR leukemia) of 10.1 µM, a GI50 (SK-OV-3 ovarian) of 10.6 µM and a TGI (SK-OV-3 ovarian) of 22.5 µM. It also gave a GI50 (SN12C renal) of 6.12 µM, a TGI (SN12C renal) of 23 µM and a GI50 (NCI-H460 lung) of 3.84 µM. The TGI (NCI-H460 lung) was 15.8 µM, the GI50 (CCRF-CEM leukemia) was 4.75 µM and the TGI (CCRF-CEM leukemia) was 22.1 µM. It also gave a GI50 (HCT-15 colon) of 4.98 µM, a TGI (HCT-15 colon) of 24.6 µM and a GI50 (SK-MEL-28 melanoma) of 7.21 µM. For the same compound, the TGI (SK-MEL-28 melanoma) was 20.6 µM, the GI50 (ACHN renal) was 7.76 µM and the TGI (ACHN renal) was 26.1 µM. The GI50 (UACC-257 melanoma) was 3.95 µM, the TGI (UACC-257 melanoma) was 15.5 µM and the GI50 (HL-60(TB) leukemia) was 3.91 µM. It also gave a TGI (HL-60(TB) leukemia) of 17.2 µM, a GI50 (OVCAR-8 ovarian) of 3.9 µM and a TGI (OVCAR-8 ovarian) of 18.2 µM. It also gave a GI50 (T-47D breast) of 3.71 µM, a TGI (T-47D breast) of 18.5 µM and a GI50 (A549 NSCLC) of 6.44 µM. For the same compound, the TGI (A549 NSCLC) was 22.8 µM, the GI50 (786-0 renal) was 6.62 µM and the TGI (786-0 renal) was 22.1 µM. For the same compound, the GI50 (KM12 colon) was 5.46 µM, the TGI (KM12 colon) was 19.7 µM and the GI50 (IGROV1 ovarian) was 5.44 µM. It also gave a TGI (IGROV1 ovarian) of 24.6 µM, a GI50 (M14 melanoma) of 13.3 µM and a TGI (M14 melanoma) of 30.8 µM. It also gave a GI50 (MALME-3M melanoma) of 3.8 µM, a TGI (MALME-3M melanoma) of 17.7 µM and a GI50 (NCI-H522 lung) of 8.45 µM. It also gave a TGI (NCI-H522 lung) of 24.7 µM, a GI50 (NCI-H226 lung) of 11.8 µM and a TGI (NCI-H226 lung) of 35.2 µM. The GI50 (MCF7 breast) was 3.14 µM, the TGI (MCF7 breast) was 15.7 µM and the GI50 (OVCAR-4 ovarian) was 4.42 µM. The TGI (OVCAR-4 ovarian) was 37.6 µM, the GI50 (RPMI-8226 leukemia) was 2.03 µM and the TGI (RPMI-8226 leukemia) was 7.97 µM. For the same compound, the GI50 (PC-3 prostate) was 4.34 µM, the TGI (PC-3 prostate) was 18.7 µM and the GI50 (COLO 205 colon) was 1.73 µM. The TGI (COLO 205 colon) was 3.31 µM, the GI50 (HCT-116 colon) was 3.34 µM and the TGI (HCT-116 colon) was 18.2 µM. The GI50 (DU-145 prostate) was 11.3 µM, the TGI (DU-145 prostate) was 23.9 µM and the GI50 (SNB-19 CNS) was 11.1 µM. For the same compound, the TGI (SNB-19 CNS) was 26.8 µM, the GI50 (NCI/ADR-RES ovarian) was 6.38 µM and the TGI (NCI/ADR-RES ovarian) was 38 µM. The GI50 (UACC-62 melanoma) was 5.61 µM, the TGI (UACC-62 melanoma) was 20.2 µM and the GI50 (BT-549 breast) was 7.45 µM. For the same compound, the TGI (BT-549 breast) was 23.2 µM, the GI50 (A498 renal) was 2.75 µM and the TGI (A498 renal) was 10.7 µM. The GI50 (SW-620 colon) was 6.62 µM, the TGI (SW-620 colon) was 23.7 µM and the GI50 (SK-MEL-2 melanoma) was 11 µM. The TGI (SK-MEL-2 melanoma) was 25.4 µM, the GI50 (OVCAR-5 ovarian) was 12.4 µM and the TGI (OVCAR-5 ovarian) was 29.9 µM. The GI50 (HS 578T breast) was 7.26 µM, the TGI (HS 578T breast) was 32.7 µM and the GI50 (SF-268 CNS) was 11.3 µM. It also gave a TGI (SF-268 CNS) of 28.6 µM, a GI50 (MDA-MB-435) of 5.72 µM and a TGI (MDA-MB-435) of 20 µM. It also gave a GI50 (MOLT-4 leukemia) of 4.89 µM, a TGI (MOLT-4 leukemia) of 19.8 µM and a GI50 (NCI-H23 lung) of 4.96 µM. The TGI (NCI-H23 lung) was 21.9 µM, the GI50 (HT29 colon) was 3.7 µM and the TGI (HT29 colon) was 13.4 µM. For the same compound, the GI50 (SK-MEL-5 melanoma) was 2.73 µM, the TGI (SK-MEL-5 melanoma) was 10.1 µM and the GI50 (U251 CNS) was 3.32 µM. The TGI (U251 CNS) was 8.34 µM, the GI50 (LOX IMVI melanoma) was 7.12 µM and the TGI (LOX IMVI melanoma) was 28.7 µM. It also gave a GI50 (SF-539 CNS) of 10.8 µM, a TGI (SF-539 CNS) of 24.7 µM and a GI50 (OVCAR-3 ovarian) of 8.65 µM. It also gave a TGI (OVCAR-3 ovarian) of 21.7 µM.
